Results reported in patent publication US10519211B2, “Compounds as peptidic GLP1/glucagon/GIP receptor agonists” (SANOFI, priority 2016, dated 2019).

Assays:
[1] = biological target: T1, human GIP receptor (hGIP-R) (Homo sapiens, UniProt P48546); test: cAMP response (HTRF) of HEK-293 cells stably expressing human GIP receptor; type: cell-based; conditions: Table 8; cAMP formation
T1 construct: expressed in transfected cells; host or cells: HEK-293
T1 sequence (P48546 22-466): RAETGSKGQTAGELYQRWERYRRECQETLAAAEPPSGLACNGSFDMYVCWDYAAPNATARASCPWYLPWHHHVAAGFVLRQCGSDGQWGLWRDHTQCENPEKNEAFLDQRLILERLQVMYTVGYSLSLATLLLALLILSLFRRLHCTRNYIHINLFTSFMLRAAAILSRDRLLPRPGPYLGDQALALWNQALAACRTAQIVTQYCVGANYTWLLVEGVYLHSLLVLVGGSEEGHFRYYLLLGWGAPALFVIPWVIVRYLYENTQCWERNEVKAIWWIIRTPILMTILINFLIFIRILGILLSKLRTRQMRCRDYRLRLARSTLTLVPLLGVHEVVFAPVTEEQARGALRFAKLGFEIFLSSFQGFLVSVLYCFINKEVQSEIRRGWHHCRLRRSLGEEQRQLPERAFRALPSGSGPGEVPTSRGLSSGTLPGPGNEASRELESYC
Experimental: cAMP content of cells was determined using a kit from Cisbio Corp. (cat. no. 62AM4PEJ) based on HTRF (Homogenous Time Resolved Fluorescence). For preparation, cells were split into T175 culture flasks and grown overnight to near confluency in medium (DMEM/10% FBS). Medium was then removed and cells washed with PBS lacking calcium and magnesium, followed by proteinase treatment with accutase (Sigma-Aldrich cat. no. A6964). Detached cells were washed and resuspended in assay buffer (1×HBSS; 20 mM HEPES, 0.1% BSA, 2 mM IBMX) and cellular density determined. They were then diluted to 400000 cells/ml and 25 μl-aliquots dispensed into the wells of 96-well plates. For measurement, 25 μl of test compound in assay buffer was added to the wells, followed by incubation for 30 minutes at room temperature.
Potencies of peptidic compounds at the GLP-1, glucagon and GIP receptors were determined by exposing cells expressing human glucagon receptor (hGlucagon R), human GIP receptor (hGIP-R) or human GLP-1 receptor (hGLP-1 R) to the listed compounds at increasing concentrations and measuring the formed cAMP as described in Methods.

[2] = system: female diet-induced obese (DIO) C57BL/6NHsd mice; test: Acute and chronic effects after subcutaneous treatment in female diet-induced obese (DIO) mice; type: in vivo, mouse; conditions: for Body mass compared to the DIO-Vehicle group / Whole body fat mass compared to the DIO-Vehicle group / Plasma insulin concentrations compared to DIO vehicle / Plasma total cholesterol concentrations compared to DIO vehicle / Liver mass on day 28 compared to DIO animals treated with vehicle / Plasma alanine aminotransferase concentration on day 28 compared to DIO vehicle: 30 μg/kg s.c. twice daily; for Body mass compared to the DIO-Vehicle group / Whole body fat mass compared to the DIO-Vehicle group / Body mass change: 28 days; for Body mass compared to the DIO-Vehicle group / Whole body fat mass compared to the DIO-Vehicle group / Plasma insulin concentrations compared to DIO vehicle / Plasma total cholesterol concentrations compared to DIO vehicle / Liver mass on day 28 compared to DIO animals treated with vehicle / Plasma alanine aminotransferase concentration on day 28 compared to DIO vehicle / 24 hour blood glucose profile following first treatment: in words; for Plasma insulin concentrations compared to DIO vehicle / Plasma total cholesterol concentrations compared to DIO vehicle: day 28; for 24 hour blood glucose profile following first treatment: 30 μg/kg s.c., day 1, fed DIO mice, vs DIO control; for Body mass change / Whole body fat mass change / Terminal liver mass (g) / Terminal plasma alanine aminotransferase (U/L) / Terminal plasma insulin (U/L) / Terminal plasma total cholesterol (mmol/L): Table 11, twice-daily 30 μg/kg s.c.; for Body mass change: mean ± SEM; for Whole body fat mass change: QNMR predose vs day 26, mean ± SEM; for Terminal liver mass (g) / Terminal plasma alanine aminotransferase (U/L) / Terminal plasma insulin (U/L) / Terminal plasma total cholesterol (mmol/L): day 28, mean ± SEM
Experimental: Female C57BL/6NHsd mice were ordered group housed from Envigo RMS Inc., shipped group housed and remained group housed with shipped cage mates in shoebox caging with wood chip bedding until day 38 of the predose phase. At the study start mice were between 25-26 weeks old.
Mice were housed under vivarium conditions that included a 12 h light/dark cycle (light phase 04:00 AM-4:00 PM), room temperatures between 23-26° C. and a relative humidity between 30-70%. All animals had free access to water and a high fat diet (TD97366) for 16 weeks prior to pharmacological intervention (dosing phase). Feed was replaced with fresh feed weekly until and for the last time on day 38 of the predose phase. During the subsequent dosing phase, approximately 50% of the remaining feed were removed, replaced with fresh feed, and pellets were mixed evenly once per week.
On predose day 38, obese DIO mice were assigned to treatment groups (n=8) to match mean body masses between all DIO groups. An age-matched group with ad libitum access to a rodent maintenance diet (Teklad Global Diets Rodent 2014, pelleted) was included in the study as a lean control group. In the predosing phase from day 32 through 38, all study animals were treated with vehicle (Phosphate Buffered Saline, PBS, Gibco, without CaCl2 and MgCl2) once daily (s.c. approximately 0.2 mL/mouse).
On day 37 of the predose phase, the test article was diluted with PBS to a concentration of 100 μg/mL and aliquots of this stock solution were stored at approximately ≤−60° C. Stock aliquots were thawed for weekly use and thereafter stored in a refrigerator at approximately 4° C. The injected test article solution was prepared fresh once on each dosing day by diluting stock solution with PBS to achieve the desired concentration.
Mice were treated twice daily with a s.c. injection of PBS-vehicle or the test article for 28 days. The morning dosing was initiated and completed between 06:00 and 07:30 AM and the afternoon dosing between 2:00 and 3:30 PM. On day 28 of the dosing phase only the morning dose was administered. The applied volume was 5 ml/kg and the dose was adjusted to the most recent body mass recording of each individual.
Animals had unlimited access to water and feed during the experiment. On day 1 of the dosing phase approximately 5 μL of blood were collected via tail clips at hour 0, prior to the first s.c. dose of PBS-vehicle or test-article as well as 1, 2, 3, 4, 6, and 24 hours post-dose. Animals received the second s.c. dose of PBS-vehicle or test-article 8 hours after the first dose. The 24 hour blood collection of the blood glucose profile was performed prior to dosing on day 2. Glucose measurements were performed in whole blood and in duplicate or triplicate using Aviva glucometers.
Body mass was measured daily approximately between 06:00-07:30 AM from day 32 through 38 of the predosing phase and throughout the 28 days of the dosing phase. During the dosing phase mice were treated twice daily with either a s.c. injection of PBS-vehicle or test article.
To determine whole body fat mass Quantitative Nuclear Magnetic Resonance (QNMR) measurements were performed on predosing day 37 and on day 26 of the dosing phase. During the dosing phase mice were treated twice daily with either a s.c. injection of PBS-vehicle or test article.
On day 28 blood was collected prior to any other inlife activities for determination of plasma insulin concentrations. Then the morning dose was administered and necropsy was performed 4 hours post-dose. For this purpose animals were anesthetized with isoflurane and blood was collected by orbital bleeding.
On day 28 and 4 hours after the morning dose, blood was collected from mice under isoflurane anesthesia as described above. Then mice were killed and livers were collected and weighed.
Data are depicted as means±SEM. […] A One-Way ANOVA and Tukey Test were used for pairwise multiple comparisons of all groups (n=8/group, deviations from group size are indicated). […]

EC50 [1]	SMILES	Body mass compared to the DIO-Vehicle group [2]	Whole body fat mass compared to the DIO-Vehicle group [2]	Plasma insulin concentrations compared to DIO vehicle [2]	Plasma total cholesterol concentrations compared to DIO vehicle [2]	Liver mass on day 28 compared to DIO animals treated with vehicle [2]	Plasma alanine aminotransferase concentration on day 28 compared to DIO vehicle [2]	24 hour blood glucose profile following first treatment [2]	Body mass change [2]	Whole body fat mass change [2]	Terminal liver mass (g) [2]	Terminal plasma alanine aminotransferase (U/L) [2]	Terminal plasma insulin (U/L) [2]	Terminal plasma total cholesterol (mmol/L) [2]
5.6 pM	CCCCCCCCCCCCCCCC(=O)N[C@@H](CCC(=O)N[C@@H](CCC(=O)NCCCC[C@H](NC(=O)[C@H](CC(C)C)NC(=O)[C@H](CCCCN)NC(=O)[C@H](CO)NC(=O)[C@H](CC(C)C)NC(=O)[C@H](CC(=O)O)NC(=O)[C@H](CO)NC(=O)[C@@H](NC(=O)[C@H](Cc1ccccc1)NC(=O)[C@@H](NC(=O)CNC(=O)[C@H](CCC(N)=O)NC(=O)C(C)(C)NC(=O)[C@@H](N)Cc1c[nH]cn1)[C@@H](C)O)[C@@H](C)O)C(=O)N[C@@H](CCC(=O)O)C(=O)N[C@@H](CCC(=O)O)C(=O)N[C@@H](CCC(N)=O)C(=O)N[C@@H](CCCNC(=N)N)C(=O)N[C@@H](CCC(N)=O)C(=O)NC(C)(C)C(=O)N[C@@H](CCC(=O)O)C(=O)N[C@@H](Cc1ccccc1)C(=O)N[C@H](C(=O)N[C@@H](CCC(=O)O)C(=O)N[C@@H](Cc1c[nH]c2ccccc12)C(=O)N[C@@H](CC(C)C)C(=O)N[C@@H](CCCCN)C(=O)N[C@@H](C)C(=O)NCC(=O)NCC(=O)N[C@@H](Cc1c[nH]cn1)C(=O)N1CCC[C@H]1C(=O)N[C@@H](CO)C(=O)NC(C)(C)C(=O)N[C@@H](CCCCN)C(=O)N1CCC[C@H]1C(=O)N1CCC[C@H]1C(=O)N1CCC[C@H]1C(=O)N[C@@H](CCCCN)C(N)=O)[C@@H](C)CC)C(=O)O)C(=O)O [SEQ ID NO: 8, H-Aib-Q-G-T-F-T-S-D-L-S-K-L-K[gGlu-gGlu-Palm]-E-E-Q-R-Q-Aib-E-F-I-E-W-L-K-A-G-G-H-P-S-Aib-K-P-P-P-K-NH2]	statistically significant decrease in body mass	statistically significantly reduction in whole body fat mass	statistically significant reduction in plasma insulin concentrations	statistically significant reduction in plasma total cholesterol concentrations	statistically significantly lower liver mass	statistically significantly lower plasma alanine aminotransferase concentration	decrease in blood glucose concentrations below concentrations observed in DIO control mice	-8.23 ± 0.62 g	-6.65 ± 0.38 g	+1.08 ± 0.03 g	+68.88 ± 15.05 U/L	+39.70 ± 4.25 U/L	+4.36 ± 0.08 mmol/L
5.6 pM	CCCCCCCCCCCCCCCC(=O)N[C@@H](CCC(=O)N[C@@H](CCC(=O)NCCCC[C@H](NC(=O)[C@H](CC(C)C)NC(=O)[C@H](CCCCN)NC(=O)[C@H](CO)NC(=O)[C@H](CC(C)C)NC(=O)[C@H](CC(=O)O)NC(=O)[C@H](CO)NC(=O)[C@@H](NC(=O)[C@H](Cc1ccccc1)NC(=O)[C@@H](NC(=O)CNC(=O)[C@H](CCC(N)=O)NC(=O)C(C)(C)NC(=O)[C@@H](N)Cc1c[nH]cn1)[C@@H](C)O)[C@@H](C)O)C(=O)N[C@@H](CCC(=O)O)C(=O)N[C@@H](CCC(=O)O)C(=O)N[C@@H](CCC(N)=O)C(=O)N[C@@H](CCCNC(=N)N)C(=O)N[C@@H](CCC(N)=O)C(=O)NC(C)(C)C(=O)N[C@@H](CCC(=O)O)C(=O)N[C@@H](Cc1ccccc1)C(=O)N[C@H](C(=O)N[C@@H](CCC(=O)O)C(=O)N[C@@H](Cc1c[nH]c2ccccc12)C(=O)N[C@@H](CC(C)C)C(=O)N[C@@H](CCCCN)C(=O)N[C@@H](C)C(=O)NCC(=O)NCC(=O)N1CCC[C@H]1C(=O)N1CCC[C@H]1C(=O)N[C@@H](CO)C(=O)NC(C)(C)C(=O)N[C@@H](CCCCN)C(=O)N1CCC[C@H]1C(=O)N1CCC[C@H]1C(=O)N1CCC[C@H]1C(=O)N[C@@H](CCCCN)C(N)=O)[C@@H](C)CC)C(=O)O)C(=O)O [SEQ ID NO: 9, H-Aib-Q-G-T-F-T-S-D-L-S-K-L-K[gGlu-gGlu-Palm]-E-E-Q-R-Q-Aib-E-F-I-E-W-L-K-A-G-G-P-P-S-Aib-K-P-P-P-K-NH2]	statistically significant decrease in body mass	statistically significantly reduction in whole body fat mass	statistically significant reduction in plasma insulin concentrations	statistically significant reduction in plasma total cholesterol concentrations	statistically significantly lower liver mass	statistically significantly lower plasma alanine aminotransferase concentration	decrease in blood glucose concentrations below concentrations observed in DIO control mice	-10.03 ± 2.33 g	-5.29 ± 2.32 g	+1.11 ± 0.06 g	+57.13 ± 7.33 U/L	+38.95 ± 7.30 U/L	+3.97 ± 0.12 mmol/L
